Measured values reported in publication PMC4725915, “Ruthenium(II) Complexes with 2-Phenylimidazo[4,5-f][1,10]phenanthroline Derivatives that Strongly Combat Cisplatin-Resistant Tumor Cells” (Scientific Reports, 2016).

How the values were obtained:
HeLa = test: MTT cytotoxicity assay, HeLa; format: cell-based, human; conditions: 48 h, mean ± SD of three experiments
Protocol: (§1) Compounds 1–4 were evaluated against three tumor cell lines derived from different tissues, including the cervix (HeLa), lung (A549) and cisplatin-resistant lung (A549R) tissues. For comparison, the cytotoxicity of cisplatin was also evaluated. As a control, the toxicities of the complexes were also tested against the normal human cell line (LO2).
(§2) The human cervix carcinoma cell line (HeLa), the lung carcinoma cell lines (A549 and A549R), and the human hepatocyte cell line (LO2) were obtained from the Experimental Animal Center at Sun Yat-Sen University (Guangzhou, China). The cells were maintained in Dulbecco’s modified Eagle’s medium (DMEM, Gibco BRL) or Roswell Park Memorial Institute 1640 (RPMI 1640, Gibco BRL) medium supplemented with 10% fetal bovine serum (FBS, Gibco BRL), 100 μg/mL streptomycin, and 100 U/mL penicillin (Gibco BRL) in a humidified incubator under 5% CO2 and 20% O2 at 37 °C. To maintain the resistant phenotype, A549R cells were incubated with 5 μM cisplatin and cultured in drug-free medium for at least a week before use.
(§3) The cytotoxicity of the ruthenium complexes and cisplatin were determined by an MTT assay. Briefly, cells were seeded into 96-well microtiter plates at 1 × 10^4 cells per well and grown overnight at 37 °C in a 5% CO2 incubator; then, different concentrations of the complexes in cell culture medium were added to the cultures. The plates were then incubated in an incubator for 48 h under the same conditions. The stock MTT dye solution (15 μL, 5 mg/mL) was added to each well. After 4 h of incubation, the cultures were removed and 150 μL of DMSO was added to each well. The optical density of each well was measured on a microplate spectrophotometer at a wavelength of 595 nm.

A549R = test: MTT cytotoxicity assay, cisplatin-resistant A549R; format: cell-based, human; conditions: 48 h, mean ± SD of three experiments
Protocol: as §1, §2, §3

LO2 = test: MTT cytotoxicity assay, normal LO2 cells; format: cell-based; conditions: LO2 normal human cell line, 48 h
Protocol: as §1, §2, §3

A549R cells [1] = test: Cell uptake study by ICP-MS; format: cell-based, human; conditions: A549R, 2.0 μM, 12 h
Protocol: To understand the high sensitivity of cancer cells to Ru(II) complexes, the extent of cellular uptake was investigated with inductively coupled plasma mass spectrometry (ICP-MS) by treating the HeLa, A549, A549R and LO2 cell lines with 2.0 μM concentrations of the Ru(II) complexes and cisplatin for 12 h. […] In this study, the cellular uptake and lipophilicity were distinctly correlated and followed the order: 4 >3 >2 >1. Complex 4 had the best accumulation, but the amount of Ru in LO2 cells was far less than that in the three cancer lines, indicating selective accumulation and improved efficiency for treating cancer. Cisplatin was taken up more efficiently by the sensitive cell line (A549) than by the cisplatin-resistant cell line (A549R). […] However, less than 1.5% of the cellular platinum was accumulated in the mitochondrial fraction of the A549R cells. Therefore, complex 4 could function in a different manner than cisplatin in A549R cells, which would be an appropriate solution to combat cisplatin resistance in tumor cells.
The cells were plated at a density of 1 × 10^5 cells/mL in 10 mL of DMEM for 24 h at 37 °C under 5% CO2 and 20% O2, Ruthenium complexes (2.0 μM) and cisplatin were added to the culture medium and incubated for 12 h, and mixed with cold PBS and a trypsin-EDTA solution in a centrifuge tube for counting. Then, the nuclei and cytoplasm of the cells were extracted by using a Nuclear and Cytoplasmic Protein Extraction Kit (Life Technologies). The samples were digested in 20% HNO3 and 10% H2O2 at room temperature overnight. Each sample was then diluted with Milli-Q water to obtain 2% HNO3 sample solutions. Ruthenium contents were determined using inductively coupled plasma mass spectrometry (ICP-MS Thermo Elemental Co., Ltd.).

A549R cells [2] = test: Cell cycle analysis (PI, FACS); format: cell-based, human; conditions: 24 h
Protocol: Cell proliferation is activated under pathological conditions and plays a crucial role in cancer cell regeneration. Deregulated cell-cycle control is a fundamental aspect of cancer and the process is related to the proliferation and death of cancer cells. Therefore, the effect of cyclometalated complex 4 on cell cycles was investigated using fluorescence-activated cell sorting (FACS) analysis of the DNA content. […] A higher dose of complex 4 (2.0 μM) elicited a strong G2/M arrest of A549R cells, accounting for 46% of the cell population (control, 12.82%). The enrichment of the G2/M phase of the cell cycle of A549R cells may have led to their apoptosis by disrupting the cell cycle.
A549R cells were treated with different concentrations of complex 4 (i.e., 0.5, 1.0 and 2.0 μM) for 24 h. The cells were collected and fixed in 2 mL of 70% cold aqueous ethanol (v/v). After incubation, the cells were centrifuged and washed three times with cold PBS and resuspended in 0.5 mL of PBS. To a 0.5 mL cell sample, […] of RNase A (1 mg/mL in PBS) was added and incubated for 30 min at 37 °C; then, […] of a PI ([…] in PBS) solution was added after gentle mixing for 5 min at 37 °C in the dark. The samples were resuspended and 10,000 cells were analyzed for each sample by a BD FACS Calibur cytometer (Becton Dickinson, Heidelberg, Germany). The data were acquired and analyzed with ModFit LT 3.2.

TrxR = TrxR activity assay in A549R cells (DTNB reduction); format: cell-based, human; conditions: 4.0 μM, 12 h
From the text: The elevated levels of TrxR in cancers, especially in non-small cell lung cancers, are responsible for drug resistance. The thioredoxin system has a significant influence on intracellular physiological processes, such as antioxidant defense, cell functions, cell apoptosis and cell proliferation. TrxR has previously been identified as a drug target. […] In addition, the expression levels of TrxR in A549R cells in response to the addition of complex 4 were also examined by Western blot analysis.
A549R cells (2 × 10^6 cells) treated or untreated with complex 4 for 12 h were homogenized in 100–200 μl of cold assay buffer on ice and a protease inhibitor cocktail was added to the sample; the sample was then centrifuged at 10,000 x g for 15 min at 4 °C. The supernatant was collected for the assay and stored on ice. The protein concentration of each supernatant was determined using the Bradford reagent. A total of 40 μl of the reaction mix (30 μl assay buffer, 8 μl 5, 5′-dithiobis (2-nitrobenzoic) acid (DTNB) solution and 2 μl NADPH) was added to each sample and incubated at 25 °C for 20 min. TrxR catalyzes the reduction of DTNB by NADPH to 5-thio-2-nitrobenzoic acid (TNB2), which generates a strong yellow color (λmax = 412 nm); consequently, the amount of […] was used to monitor the change in absorbance at 412 nm. […]

Ru(phen)(bzq)(tbtfpip)(PF6) [Complex 4]
IC50 (HeLa): 2400 ± 300 nM | IC50 (A549R): 800 ± 100 nM | IC50 (LO2): 6.7 ± 2.4 µM | share of the compound taken up by A549R cells (A549R cells [1]): Approximately 8% | G2/M share of the cell population (A549R cells [2]; 2.0 μM, control 12.82%): 46% | percentage of cells in the G0/G1 phase (A549R cells [2]; control 68.46): 30.87% | decline of intracellular TrxR activity (TrxR): approximately 45%
